# Laboratory results reported in patent US10414759B2, “Phenylthiazoles and uses thereof” (Purdue Research Foundation, priority 2017, dated 2019).
# Entries after “also recorded” stand apart in the source; their conditions may differ. Like-named read-outs stand apart in the source and are kept apart here.
# Experiments:
# [1] = tested on: MRSA (2658 RCMB); test: MIC against MRSA (2658 RCMB), broth dilution; type: cell-based, Staphylococcus aureus; details: for MIC: Staphylococcus aureus
# Procedure: Bacteria were cultured in cation-adjusted Mueller Hinton broth in a 96-well plate. Compounds, using triplicate samples, were added to the plate and serially diluted. […] Plates were visually inspected and the MIC was categorized as the concentration at which no visible growth of bacteria was observed. The average of triplicate MIC determinations is reported.
# (§1) A bacterial solution equivalent to 0.5 McFarland standard was prepared and diluted in cation-adjusted Mueller-Hinton broth (CAMHB) to achieve a bacterial concentration of about 5×10^5 CFU/mL and seeded in 96-well plates. Enterococcus faecium was diluted in brain heart infusion broth. Enterococcus faecalis, Streptococcus pneumonia and Listeria monocytogenes were diluted in tryptone soya broth (TSB).
# [2] = PBS solubility screen (turbidometric); type: physicochemical
# Procedure: The solutions were diluted 100-fold into PBS in a 96-well plate and mixed. The absorbance of the PBS-containing plate was measured prior to addition of the test agents to determine the background absorbance. After 2 h, the presence of precipitate was detected by turbidity (absorbance at 540 nm). […] The solubility limit is reported as the highest experimental concentration with no evidence of turbidity.
# [3] = Metabolic stability in human liver microsomes; type: in vitro ADME; details: pH 7.4, human liver microsomes
# Procedure: The tested compounds were incubated in duplicate with human liver microsomes at 37° C. The reaction contained microsomal protein in 100 mM potassium phosphate, 2 mM NADPH, 3 mM MgCl2, pH 7.4. A control was run for each test agent omitting NADPH to detect NADPH-free degradation. At 0, 10, 20, 40, and 60 minutes, an aliquot was removed from each experimental and control reaction and mixed with an equal volume of ice-cold Stop Solution (methanol containing haloperidol, diclofenac, or other internal standard). Stopped reactions are incubated at least ten minutes at −20° C., and an additional volume of water was added. The samples were centrifuged to remove precipitated protein, and the supernatants were analyzed by LC/MS/MS to quantitate the remaining parent. Data are converted to % remaining by dividing by the time zero concentration value. Data are fit to a first-order decay model to determine half-life. Intrinsic clearance is calculated from the half-life and the protein concentrations: CLint=ln(2)/(T1/2 [microsomal protein]).
# [4] = tested on: Caco-2 cells; test: Caco-2 bidirectional permeability assay; details: for Mean A→B Papp: Caco-2, apical to basolateral
# [5] = tested on: Methicillin-resistant Staphylococcus epidermidis NRS101; test: MIC/MBC Gram-positive pathogens (Table 9); type: cell-based
# Procedure: as §1
# [6] = tested on: Enterococcus faecalis ATCC 51299 (VRE); test: MIC/MBC Gram-positive pathogens (Table 9); type: cell-based; details: Table 9; Enterococcus faecalis ATCC 51299 (VRE)
# Procedure: as §1
# [7] = tested on: MRSA (USA300); test: Time-kill assay; type: cell-based, Staphylococcus aureus; details: 3.0×MIC
# Procedure: Aliquots (100 μL) were taken from each sample after 2, 4, 6, 8, 10, 12, and 24 hours, serially diluted in phosphate-buffered saline, and transferred to Trypticase soy agar (TSA) (Becton, Dickinson and Company, Sparks, Md., USA) plates. Plates were incubated at 37° C. for at least 16 hours before counting viable CFU/mL to determine the time required to reduce the bacterial cell count by 3-log10.
# [8] = tested on: MRSA NRS385; test: MIC/MBC S. aureus strains (Table 8); type: cell-based; details: Staphylococcus aureus
# Procedure: as §1
# [9] = tested on: MRSA NRS384 (USA300); test: MIC/MBC S. aureus strains (Table 8); type: cell-based; details: Staphylococcus aureus
# Procedure: as §1
# [10] = tested on: S. aureus ATCC 6538; test: MIC/MBC S. aureus strains (Table 8); type: cell-based; details: Staphylococcus aureus, ATCC6538
# Procedure: as §1
# [11] = tested on: Enterococcus faecium ATCC 700221 (VRE); test: MIC/MBC Gram-positive pathogens (Table 9); type: cell-based; details: Table 9; Enterococcus faecium ATCC 700221 (VRE); read-out: MIC
# Procedure: The minimum inhibitory concentration (MIC) of tested compounds and control antibiotics were determined using the broth microdilution method in accordance with the recommendations contained in the Clinical and Laboratory Standards Institute guidelines, against methicillin-sensitive (ATCC 6538 and NRS107), methicillin-resistant (MRSA), and vancomycin-resistant (VRSA) Staphylococcus aureus, Staphylococcus epidermidis, Enterococcus faecalis, E. faecium, Listeria monocytogenes, and Streptococcus pneumoniae clinical isolates. A bacterial solution equivalent to 0.5 McFarland standard was prepared and diluted in cation-adjusted Mueller-Hinton broth (CAMHB) to achieve a bacterial concentration of about 5×10^5 CFU/mL and seeded in 96-well plates. Enterococcus faecium was diluted in brain heart infusion broth. Enterococcus faecalis, Streptococcus pneumonia and Listeria monocytogenes were diluted in tryptone soya broth (TSB). Compounds and control drugs were added in the first row of 96-well plates and serially diluted (to achieve a concentration gradient ranging from 128 to 1 μg/mL). Plates were then incubated aerobically at 37° C. for at least 18 hours. The minimum bactericidal concentration (MBC) of the active compounds was tested by plating 5 μL from wells with no growth onto Tryptic soy agar (TSA) plates.
# [12] = Table 1, MRSA (2658 RCMB), read-out: MIC ± SD
# [13] = aqueous buffer, kinetic from dmso stock
# [14] = NADPH omitted, read-out: NADPH-free Clint
# [15] = NADPH omitted, read-out: NADPH-free t1/2
# [16] = with NADPH, read-out: NADPH-dependent CLint
# [17] = with NADPH, read-out: NADPH-dependent t1/2
# [18] = aqueous buffer, kinetic from dmso stock, phosphate buffered saline (PBS), highest concentration with no precipitate (OD540), read-out: Solubility limit
compound,measurement,setting,value
"CCCCc1ccc(-c2nc(C)c(-c3ccnc(N)n3)s2)cc1 [Compound 8, 4-[2-(4-Butylphenyl)-4-methylthiazol-5-yl]pyrimidin-2-amine]",melting point,,159 °C
same,MIC,[1]; [12],3.12 ± 0.1 µg/mL
same,MIC ± SD,"[1]; Table 1, MRSA (2658 RCMB)",3.12 ± 0.10 µg/mL
same,less soluble than the lead compound 1,[2]; 2 h,32%
same,solubility at 2 h,[2]; [13],42 µM
same,microsomal CLint,[3]; [14],0.5 µL/min/mg
same,half-life,[3]; [15],> 1 h
same,microsomal CLint,[3]; [16],3 to 7.5 µL/min/mg
same,half-life,[3]; [17],3.25 h
same,Mean A→B Papp,[4],14.9 ×10⁻⁶ cm/s
same,Mean B→A Papp,"[4]; Caco-2, basolateral to apical",17 ×10⁻⁶ cm/s
same,Efflux ratio,[4]; Papp (B→A)/Papp (A→B),1.1
"CCCCc1ccc(-c2nc(C)c(-c3ccnc(NC(=N)N(C)C)n3)s2)cc1 [Compound 11, 3-{4-[2-(4-Butylphenyl)-4-methylthiazol-5-yl]pyrimidin-2-yl}-1,1-dimethylguanidine]",melting point,,153.7 °C
same,MIC,[1]; [12],0.78 µg/mL
same,"antibacterial (anti-MRSA) activity, in words",[1]; Table 1,more potent than vancomycin; also recorded: MIC value below one microgram/mL
same,solubility at 2 h,[2]; [13],53 µM
same,microsomal CLint,[3]; [14],0.5 µL/min/mg
same,half-life,[3]; [15],> 1 h
same,half-life,[3]; [17],4.05 h
"Cc1nc(-c2ccc(-c3ccoc3)cc2)sc1-c1ccnc(N)n1 [Compound 24, 4-{2-[4-(Furan-3-yl)phenyl]-4-methylthiazol-5-yl}pyrimidin-2-amine]",melting point,,161.2 °C
same,MIC,"[1]; MRSA, read-out: MIC ± SD",7.8 ± 0.5 µg/mL
same,solubility at 2 h,[2]; [18],13 µM
"Cc1nc(-c2ccc(-c3ccco3)cc2)sc1-c1ccnc(N)n1 [Compound 25, 4-{2-[4-(Furan-2-yl)phenyl]-4-methylthiazol-5-yl}pyrimidin-2-amine]",melting point,,209.3 °C
same,MIC,"[1]; MRSA, read-out: MIC ± SD",8.7 ± 0.3 µg/mL
same,solubility at 2 h,[2]; [18],14 µM
"Cc1nc(-c2ccc(-c3ccsc3)cc2)sc1-c1ccnc(N)n1 [Compound 26, 4-{4-Methyl-2-[4-(thiophen-3-yl)phenyl]thiazol-5-yl}pyrimidin-2-amine]",melting point,,225 °C (dec.)
same,MIC,[1]; [12],6.25 µg/mL
same,solubility at 2 h,[2]; [13],8.5 µM
"Cc1nc(-c2ccc(C3=CCCC3)cc2)sc1-c1ccnc(N)n1 [Compound 27, 4-{2-[4-(Cyclopent-1-en-1-yl)phenyl]-4-methylthiazol-5-yl}pyrimidin-2-amine]",melting point,,160.6 °C
same,MIC,[1]; [12],3.12 µg/mL
same,solubility at 2 h,[2]; [13],35 µM
"Cc1nc(-c2ccc(C3=CCCCC3)cc2)sc1-c1ccnc(N)n1 [Compound 29, 4-{2-[4-(Cyclohex-1-en-1-yl)phenyl]-4-methylthiazol-5-yl}pyrimidin-2-amine]",melting point,,140.4 °C
same,MIC,[1]; [12],0.78 µg/mL
same,solubility at 2 h,[2]; [13],37 µM
"Cc1nc(-c2ccc(C=C3CCCC3)cc2)sc1-c1ccnc(N)n1 [Compound 32, 4-{2-[4-(Cyclopentylidenemethyl)phenyl]-4-methylthiazol-5-yl}pyrimidin-2-amine]",melting point,,143 °C
same,MIC,[1]; [12],1.17 ± 0.19 µg/mL
"Cc1nc(-c2ccc(C=C3CCCCC3)cc2)sc1-c1ccnc(N)n1 [Compound 33, 4-{2-[4-(Cyclohexylidenemethyl)phenyl]-4-methylthiazol-5-yl}pyrimidin-2-amine]",melting point,,165 °C
same,MIC,"[1]; MRSA, read-out: MIC ± SD",1.56 µg/mL
"Cc1nc(-c2ccc(/C=C/C3CCCC3)cc2)sc1-c1ccnc(N)n1 [Compound 34, (E)-4-{2-[4-(2-Cyclopentylvinyl)phenyl]-4-methylthiazol-5-yl}pyrimidin-2-amine]",melting point,,180.7 °C
same,MIC,[1]; [12],3.12 µg/mL
"Cc1nc(-c2ccc(/C=C/C3CCCCC3)cc2)sc1-c1ccnc(N)n1 [Compound 35, (E)-4-{2-[4-(2-Cyclohexylvinyl)phenyl]-4-methylthiazol-5-yl}pyrimidin-2-amine]",melting point,,189 °C
same,MIC,[1]; [12],3.12 µg/mL
"Cc1nc(-c2ccc(C(C)(C)C)cc2)sc1-c1ccnc(NC(=N)N2CCOCC2)n1 [Compound 61, N-(4-(2-(4-(tert-Butyl)phenyl)-4-methylthiazol-5-yl)pyrimidin-2-yl) morpholine-4-carboximidamide]",MBC,[5],4 µg/mL
same,MIC,[5],4 µg/mL
same,MIC,[6],4 µg/mL
same,MIC,"[1]; Table 7, initial screening, MRSA (2658 RCMB), read-out: minimum inhibitory concentration (MIC)",1.17 µg/mL
same,"bactericidal / bacteriostatic behaviour in time-kill assay, in words",[7]; MRSA,rapid bactericidal activity
same,time to completely eradicate the MRSA inoculum,[7]; t-butyl series,within two to four hours
same,MIC,[8],4 µg/mL
same,MIC,[9],4 µg/mL
same,MIC,[10],4 µg/mL
same,MIC,[11],4 µg/mL
"CNC(=C[N+](=O)[O-])NCCSCc1ccc(CN(C)C)o1 [Ranitidine, ranitidine, reference compound]",Mean A→B Papp,[4],0.2 ×10⁻⁶ cm/s
"COC(=O)[C@H]1[C@H]2C[C@@H]3c4[nH]c5cc(OC)ccc5c4CCN3C[C@H]2C[C@@H](OC(=O)c2cc(OC)c(OC)c(OC)c2)[C@@H]1OC [Reserpine, reserpine, reference compound]",solubility at 2 h,"[2]; phosphate buffered saline (PBS), highest concentration with no precipitate (OD540), read-out: Solubility limit",31.3 µM
"CC(=O)CC(c1ccccc1)c1c(O)c2ccccc2oc1=O (stereo not shown) [Warfarin, warfarin, reference compound]",microsomal CLint,[3]; [16],0.3 µL/min/mg
